This is an account of results in patent US12325696B2, “Indazole derivative, preparation method therefor, and pharmaceutical application thereof” (JIANGSU HENGRUI MEDICINE CO., LTD., priority 2019, dated 2025).

The target in experiment [1] is estrogen receptor ERα Y537S mutant-type (Homo sapiens (Human), UniProt P03372, Y537S). Nature of the experiment: Covalent modification of ERα Y537S mutant-type LBD by high-resolution mass spectrometry. To be noted: after 24 hours; 2 μM protein, 10 μM compound, 4° C. The class given is binding. As for the experimental part:
(§1) The ligand binding domain (LBD, aa296-554) of estrogen receptor ERα wild-type and ERα Y537S mutant-type was expressed in E. coli and purified. 2 μM ERα wild-type or ERα Y537S mutant-type protein and 10 μM compound were added to a buffer solution containing 50 mM Tris-HCl, pH7.5, 150 mM NaCl, 1 mM TCEP and 5% glycerol and mixed well. The solution was incubated at 4° C. for 24 hours, followed by high-resolution mass spectrometry (Agilent Technologies, Agilent Q-tof 6530) assay. Alternatively, 1 μM ERα wild-type or ERα Y537S mutant-type protein and 3 μM compound were added to a buffer solution containing 50 mM Tris-HCl, pH7.5, 150 mM NaCl, 1 mM TCEP and 5% glycerol and mixed well. The solution was incubated at 37° C. for 15 minutes, followed by high-resolution mass spectrometry assay. In the mass spectrometry assay results, the peak whose molecular weight is the sum of the molecular weight of the protein and compound is the product of covalent modification. The percentage of covalent modification is obtained by calculating the ratio of […] to total protein.

The next experiment deals with MCF7 ERαY537S. Nature of the experiment: Inhibition of proliferation of MCF7 cell expressing ERα Y537S mutant. The class given is cell-based. To be noted: Homo sapiens, 144 hours; for Emax: read-out: Maximum inhibition. The method in brief:
(§2)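 MCF7 cells stably expressing lentiviral ERα Y537S or D538G mutants, seeded 3,000 cells/well, then exposed in 2% FBS MEM to nine 4-fold dilutions from 100 nM for 144 h at 37° C. Viability read by CellTiter-Glo luminescence; IC50 fitted from concentration-response.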

The target of experiment [2] is estrogen receptor ERα wild-type (Homo sapiens (Human), UniProt P03372). Nature of the experiment: Covalent modification of ERα wild-type LBD by high-resolution mass spectrometry. To be noted: after 24 hours; 2 μM protein, 10 μM compound, 4° C. The class given is binding. As for the experimental part:
as §1

The test system of a further experiment is MCF7 D538G. Put plainly: Inhibition of proliferation of MCF7 cell expressing ERα D538G mutant. The class given is cell-based. The note with it: Homo sapiens, 144 hours; for Emax: read-out: Maximum inhibition. The method in brief: as §2
Experiment [3] deals with estrogen receptor reporter gene. Nature of the experiment: Inhibition of estrogen receptor reporter gene activity (ERE-luc luciferase) in MCF7/ERE-luc cells. The note with it: Homo sapiens, 0.1 nM β-estradiol, 20 hours, read-out: IC50 of inhibitory activity on the activity of the estrogen receptor reporter gene. The class given is cell-based. The method in brief: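 MCF7 cells stably carrying ERE-driven luciferase, in charcoal-stripped serum medium, were stimulated with 0.1 nM β-estradiol plus compound (nine 10-fold dilutions from 10 μM) for 20 h at 37° C. ONE-Glo luminescence was read, and IC50 was fitted from signal versus log concentration.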
A general note: In a reporter assay the amount or activity of a reporter protein is the signal.

The subject of another experiment is MCF7 cell. Put plainly: Inhibition of proliferation of MCF7 cell (CellTiter-Glo, 144 hours). The class given is cell-based. To be noted: Homo sapiens; for pIC50: MCF7, CellTiter-Glo, read-out: IC50 of the inhibitory effect on the proliferation of MCF7 cell; for Emax: MCF7 cell proliferation, read-out: Maximum inhibition. The method in brief:
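Seeded overnight, MCF7 cells were treated in MEM with 2% FBS with nine 4-fold dilutions from 100 nM (0.5% DMSO blank). Incubation 144 h at 37° C, 5% CO2. CellTiter-Glo luminescence read; IC50 from signal versus log concentration.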
(In general: ATP-based viability assays read luminescence as a measure of living cells.)

pIC50: −log10 of the molar value.

Chain of estrogen receptor ERα Y537S mutant-type (P03372 296-554 Y537S): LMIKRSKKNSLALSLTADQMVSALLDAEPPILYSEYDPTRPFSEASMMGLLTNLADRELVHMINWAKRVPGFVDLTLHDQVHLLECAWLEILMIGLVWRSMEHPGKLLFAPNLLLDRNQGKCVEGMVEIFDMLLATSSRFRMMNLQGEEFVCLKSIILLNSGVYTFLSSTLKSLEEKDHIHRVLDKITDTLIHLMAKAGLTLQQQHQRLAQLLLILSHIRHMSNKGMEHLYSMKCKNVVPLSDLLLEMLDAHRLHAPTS
Chain of estrogen receptor ERα wild-type (P03372 296-554): as the sequence (P03372 296-554 Y537S) above, with S242Y counted along it

With `CN(C)C(=O)/C=C/CN1CCC[C@@H](Oc2ccc(/C(=C(/CC(F)(F)F)c3ccc(C(F)(F)F)cc3)c3ccc4[nH]nc(F)c4c3)cn2)C1` [Example 22, (E)-N,N-Dimethyl-4-((R)-3-((5-((Z)-4,4,4-trifluoro-1-(3-fluoro-1H-indazol-5-yl)-2-(4-(trifluoromethyl)phenyl)but-1-en-1-yl)pyridin-2-yl)oxy)piperidin-1-yl)but-2-enamide], the “Covalent modification effect on the estrogen receptor ERα Y537S mutant-type” value in experiment [1] worked out at 100%. Moreover, the pIC50 was 7.82 in the experiment on MCF7 ERαY537S, 7.82 with MCF7 D538G, 7.62 in experiment [3] and 8.40 in the experiment on MCF7 cell. Besides, the results for the Emax in the experiment with MCF7 ERαY537S, in the experiment on MCF7 D538G and in the experiment on MCF7 cell were 97%, 93% and 103%, respectively. Further, in experiment [2], the “Covalent modification effect on the estrogen receptor ERα wild-type” value turned out to be 95%.

For `CN(C)C(=O)/C=C/CN1CCC[C@@H](Oc2ccc(/C(=C(/CC(F)(F)F)c3ccc(S(C)(=O)=O)cc3)c3ccc4[nH]nc(F)c4c3)cn2)C1` [Example 23, (E)-N,N-Dimethyl-4-((R)-3-((5-((Z)-4,4,4-trifluoro-1-(3-fluoro-1H-indazol-5-yl)-2-(4-(methylsulfonyl)phenyl)but-1-en-1-yl)pyridin-2-yl)oxy)piperidin-1-yl)but-2-enamide], in experiment [1], the “Covalent modification effect on the estrogen receptor ERα Y537S mutant-type” value is listed as 99%. For the same compound, the pIC50 with MCF7 ERαY537S was 8.30; in the experiment with MCF7 D538G it was 8.15; in experiment [3] it was 7.89; in the experiment on MCF7 cell it was 9.00. Further, the Emax with MCF7 ERαY537S was determined as 94%; in the experiment on MCF7 D538G, 101%; in the experiment on MCF7 cell it was 97%. In experiment [2], the “Covalent modification effect on the estrogen receptor ERα wild-type” value is given as 95%.

Take `CN(C)C(=O)/C=C/CN1CCC[C@@H](Oc2ccc(/C(=C(/CC(F)(F)F)c3ccc(C#N)cc3)c3ccc4[nH]nc(F)c4c3)cn2)C1` [Example 24, (E)-4-((R)-3-((5-((Z)-2-(4-Cyanophenyl)-4,4,4-trifluoro-1-(3-fluoro-1H-indazol-5-yl)but-1-en-1-yl)pyridin-2-yl)oxy)piperidin-1-yl)-N,N-dimethylbut-2-enamide]: the “Covalent modification effect on the estrogen receptor ERα Y537S mutant-type” value in experiment [1] was determined as 99%. Besides, the pIC50 is 8.10 with MCF7 ERαY537S, 8.10 with MCF7 D538G, 8.05 in experiment [3] and 9.00 in the experiment with MCF7 cell. The Emax was determined as 102% in the experiment on MCF7 ERαY537S, 94% with MCF7 D538G and 98% in the experiment on MCF7 cell. Also, the “Covalent modification effect on the estrogen receptor ERα wild-type” value in experiment [2] was found to be 90%.

On to `CN(C)C(=O)/C=C/CN1CCC[C@@H](Nc2ccc(/C(=C(/CC(F)(F)F)c3ccccc3)c3ccc4[nH]nc(F)c4c3)cn2)C1` [Example 31, (E)-N,N-Dimethyl-4-((R)-3-((5-((Z)-4,4,4-trifluoro-1-(3-fluoro-1H-indazol-5-yl)-2-phenylbut-1-en-1-yl)pyridin-2-yl)amino)piperidin-1-yl)but-2-enamide], for which the “Covalent modification effect on the estrogen receptor ERα Y537S mutant-type” value in experiment [1] worked out at 83%. Further, the pIC50 with MCF7 ERαY537S is 8.52; with MCF7 D538G, 8.70; in experiment [3], 8.22; in the experiment with MCF7 cell, 9.15. Moreover, the Emax with MCF7 ERαY537S was 105%; in the experiment on MCF7 D538G, 101%; in the experiment with MCF7 cell, 97%. Besides, the “Covalent modification effect on the estrogen receptor ERα wild-type” value in experiment [2] was 80%.

`O=C(/C=C/CN1CCC[C@@H](Nc2ccc(/C(=C(/CC(F)(F)F)c3ccccc3)c3ccc4[nH]nc(F)c4c3)cn2)C1)N1CCOCC1` [Example 32, (E)-1-Morpholino-4-((R)-3-((5-((Z)-4,4,4-trifluoro-1-(3-fluoro-1H-indazol-5-yl)-2-phenylbut-1-en-1-yl)pyridin-2-yl)amino)piperidin-1-yl)but-2-en-1-one]: the “Covalent modification effect on the estrogen receptor ERα Y537S mutant-type” value in experiment [1] was 95%. Also, the pIC50 is 7.72 with MCF7 ERαY537S, 7.96 in the experiment on MCF7 D538G, 7.55 in experiment [3] and 8.30 in the experiment with MCF7 cell. Further, the Emax with MCF7 ERαY537S came out at 84%; with MCF7 D538G, 95%; with MCF7 cell, 100%. The “Covalent modification effect on the estrogen receptor ERα wild-type” value in experiment [2] is reported as 94%.
